Experimental data as given in PMC6268586, “Effect of Wine and Vinegar Processing of Rhizoma Corydalis on the Tissue Distribution of Tetrahydropalmatine, Protopine and Dehydrocorydaline in Rats” (Molecules, 2012).
Where two headings read alike, the source gives them in different places.

Test: Tissue distribution of THP, DHC and protopine in rat tissues after gastric gavage administration (HPLC-UV, non-compartmental analysis)
Type: in vivo, Wistar male rats
Details: male, Wistar, po, 4.52 mg/kg; for AUC(0-t): read-out: AUC0–24 h of protopine; for Cmax: read-out: Cmax of protopine; for MRT: read-out: MRT of protopine; for Tmax: read-out: Tmax of protopine
Protocol: The experimental protocol was approved by the University's Animal Ethics Committee. […] Rats had unlimited access to water. Standard food was given until 12 h before the experiments. Rhizoma Corydalis was processed according to Pharmacopoeia of Chinese Medicine and National Guideline of Traditional Chinese Medicinal Plants Processing. Briefly, fresh Rhizoma Corydalis was boiled in water till the pith turn light brown color. Cooked rhizome was sliced into pieces (4 mm, diameter) and dried at 25 °C. Dried slices were mixed with edible vinegar (100:20, rhizome/vinegar, w/v) or yellow wine (100:10, rhizome/wine, w/v) and the slices allowed to completely absorb the vinegar or wine. The soaked slices were then stir-fried in a metallic pan over a low flame till they were completely dry. The processed Rhizoma Corydalis was added with 70% ethanol (1:30 w/v) and sonicated for 1 h at room temperature. The extract was then concentrated to remove the ethanol residue and stored at 4 °C for further use. […] The ethanol extract of the unprocessed Rhizoma Corydalis and THP, DHC and protopine pure compound were used as the controls. Three hundred and sixty healthy rats were used in total and are divided into six groups (Group 1-6, sixty rats per group). Drugs were administrated by gastric gavage method. In order to keep the dose of THP, DHC and protopine constant in each group, the amount of ethanol extract of Rhizoma Corydalis administrated was normalized based on the dose of protopine pure compound used. The dose of THP and DHC pure compound administrated was same with that in the ethanol extract of Rhizoma Corydalis. The details were listed below. […] Rats were administrated with the 70% ethanol extract of unprocessed Rhizoma Corydalis at a dose of 17.75 g extract/kg body weight. […] Rats received the extract of vinegar-processed Rhizoma Corydalis at a dose of 15 g extract/kg rat body weight. Group 3: Rats were administrated with the extract of wine processed Rhizoma Corydalis at a dose of 15.78 g extract/kg body weight. […] Rats received THP pure compound at a dose of 6.45 mg/kg body weight. Group 6: Rats were administrated 26.10 mg of DHC pure compound/kg body weight. […] Brian tissue was further dissected into six parts: cerebrum, cerebellum, diencephalons, brain stem, hippocampus and striatum. All the tissue samples were rinsed with ice-old saline and stored at -20 °C until extraction. Tissue samples were homogenized in three volumes of ice-cold biological saline and centrifuged for 10 min at 10,000 g and 4 °C. An aliquot of the supernatant (0.5 mL) was collected. Liquid-liquid extraction was used to extract THP, DHC and protopine. One hundred microliter of 1.0 μg/mL nuciferin (internal standard) was mixed with 0.5 mL aliquots of the supernatant. […] The supernatant was evaporated completely under the nitrogen stream in a 60 °C water bath. The residue was redissolved in 100 μL of methanol. A CoMetro HPLC system (CoMetro Technology Ltd, South […], NJ, USA) with 6000 PVW detector UV-VIS detector was used. […] Ltd., Liaoning, China). Other chromatographic conditions were: column temperature, 35 °C; mobile phase, acetonitrile-0.1% phosphoric acid (pH 3.0) (30:70 v/v); flow rate, 1 mL/min; wavelength, 280 nm. Pharmacokinetic parameters were estimated by non-compartmental analysis using Equiv Test/PK (Statistical Solutions Ltd., Saugus, MA, USA). The maximum concentration (Cmax) and the time to reach the maximum concentration (Tmax) were directly obtained from the observed value. All data were represented as mean ± SD. Comparison of values between groups was performed using one-way ANOVA followed by Tukey's test for comparisons among four groups.

[1] = diencephalon, rat diencephalons

Question: With CN1CCc2cc3c(cc2C(=O)Cc2ccc4c(c2C1)OCO4)OCO3 [protopine] as the compound, how does the AUC(0-t) [1] read?
Answer: 3180 ± 70 ng·h/mL

Question: And the Cmax [1]?
Answer: 1310 ± 270 ng/mL

Question: And the MRT [1]?
Answer: 4.89 ± 0.01 h

Question: What about the Tmax [1] of the same compound?
Answer: 2.07 ± 0.21 h

Question: What about the AUC(0-t) (rat brain stem) of the same compound?
Answer: 2020 ± 420 ng·h/mL

Question: What about the Cmax (rat brain stem) of the same compound?
Answer: 820 ± 170 ng/mL

Question: What about the MRT (rat brain stem) of the same compound?
Answer: 3.9 ± 0.14 h

Question: What about the Tmax (rat brain stem) of the same compound?
Answer: 2.2 ± 0.01 h

Question: And the AUC(0-t) (rat cerebellum)?
Answer: 3800 ± 830 ng·h/mL

Question: And the Cmax (rat cerebellum)?
Answer: 1560 ± 320 ng/mL

Question: And the MRT (rat cerebellum)?
Answer: 4.86 ± 0.08 h

Question: What about the Tmax (rat cerebellum) of the same compound?
Answer: 2.08 ± 0.01 h

Question: And the AUC(0-t) (rat cerebrum)?
Answer: 3650 ± 780 ng·h/mL

Question: What about the Cmax (rat cerebrum) of the same compound?
Answer: 1350 ± 270 ng/mL

Question: What about the MRT (rat cerebrum) of the same compound?
Answer: 3.93 ± 0.06 h

Question: What about the Tmax (rat cerebrum) of the same compound?
Answer: 2.1 ± 0.8 h

Question: And the AUC(0-t) (rat heart)?
Answer: 6230 ± 1560 ng·h/mL

Question: And the Cmax (rat heart)?
Answer: 1500 ± 450 ng/mL

Question: And the MRT (rat heart)?
Answer: 5.93 ± 0.02 h

Question: And the Tmax (rat heart)?
Answer: 5.28 ± 0.42 h

Question: And the AUC(0-t) (rat hippocampus)?
Answer: 3660 ± 810 ng·h/mL

Question: And the Cmax (rat hippocampus)?
Answer: 1560 ± 310 ng/mL

Question: What about the MRT (rat hippocampus) of the same compound?
Answer: 5.23 ± 0.1 h

Question: And the Tmax (rat hippocampus)?
Answer: 2.09 ± 0.04 h

Question: What about the AUC(0-t) (rat kidney) of the same compound?
Answer: 13400 ± 2650 ng·h/mL

Question: What about the Cmax (rat kidney) of the same compound?
Answer: 4420 ± 1310 ng/mL

Question: And the MRT (rat kidney)?
Answer: 5.53 ± 0.04 h

Question: What about the Tmax (rat kidney) of the same compound?
Answer: 5.13 ± 0.04 h

Question: And the AUC(0-t) (rat liver)?
Answer: 27800 ± 6980 ng·h/mL

Question: What about the Cmax (rat liver) of the same compound?
Answer: 6670 ± 1970 ng/mL

Question: What about the MRT (rat liver) of the same compound?
Answer: 5.69 ± 0.03 h

Question: And the Tmax (rat liver)?
Answer: 5.09 ± 0.68 h

Question: What about the AUC(0-t) (rat lung) of the same compound?
Answer: 50200 ± 12500 ng·h/mL

Question: What about the Cmax (rat lung) of the same compound?
Answer: 11200 ± 3310 ng/mL

Question: And the MRT (rat lung)?
Answer: 5.85 ± 0.04 h

Question: What about the Tmax (rat lung) of the same compound?
Answer: 5.22 ± 0.47 h

Question: What about the AUC(0-t) (rat spleen) of the same compound?
Answer: 35000 ± 8180 ng·h/mL

Question: And the Cmax (rat spleen)?
Answer: 7420 ± 2220 ng/mL

Question: What about the MRT (rat spleen) of the same compound?
Answer: 5.65 ± 0.03 h

Question: And the Tmax (rat spleen)?
Answer: 5.22 ± 0.05 h

Question: What about the AUC(0-t) (rat striatum) of the same compound?
Answer: 6420 ± 1520 ng·h/mL

Question: What about the Cmax (rat striatum) of the same compound?
Answer: 1950 ± 400 ng/mL

Question: And the MRT (rat striatum)?
Answer: 6.57 ± 0.43 h

Question: And the Tmax (rat striatum)?
Answer: 2.07 ± 0.08 h
